Results reported in article PMC7226860 (ACS Omega, 2020).
Converted amounts (≈) assume the structure as drawn.

How the values were obtained:
[1] = test system: K. pneumonia (ATCC: 4415); experiment: Agar well diffusion, inhibition zone; assay type: cell-based, Klebsiella pneumonia; settings: Klebsiella pneumoniae, read-out: diameter of the inhibition zone, K. pneumonia (ATCC: 4415), Gram (−ve), 15 mg/mL, mean ± SD
[2] = test system: P. aeruginosa (ATCC: 27853); experiment: MIC, twofold serial dilution; assay type: cell-based; settings: Pseudomonas aeruginosa, 24 h
[3] = test system: K. pneumonia (ATCC: 4415); experiment: MIC, twofold serial dilution; assay type: cell-based; settings: Klebsiella pneumoniae, 24 h, read after 24 h
[4] = test system: E. coli (ATCC: 3008); experiment: Agar well diffusion, inhibition zone; assay type: cell-based, Escherichia coli; settings: Escherichia coli, read-out: diameter of the inhibition zone
[5] = test system: P. aeruginosa (ATCC: 27853); experiment: Agar well diffusion, inhibition zone; assay type: cell-based, Pseudomonas aeruginosa; settings: for zone of inhibition at 15000 µg/mL: Pseudomonas aeruginosa, read-out: diameter of the inhibition zone; for diameter of the inhibition zone: P. aeruginosa (ATCC: 27853), Gram (−ve), agar well diffusion, 15 mg/mL, mean ± SD
[6] = test system: E. coli (ATCC: 3008); experiment: MIC, twofold serial dilution; assay type: cell-based; settings: Escherichia coli, 24 h
[7] = test system: S. mutans (ATCC: 25175); experiment: Agar well diffusion, inhibition zone; assay type: cell-based, Streptococcus mutans; settings: Streptococcus mutans, read-out: diameter of the inhibition zone
[8] = test system: S. mutans (ATCC: 25175); experiment: MIC, twofold serial dilution; assay type: cell-based; settings: Streptococcus mutans, 24 h
[9] = test system: C. albicans (ATCC: 10231); experiment: Agar well diffusion, inhibition zone; assay type: cell-based, Candida albicans; settings: for diameter of the inhibition zone: C. albicans (ATCC: 10231), fungi, 15 mg/mL, mean ± SD; for zone of inhibition at 15000 µg/mL: Candida albicans, read-out: diameter of the inhibition zone, C. albicans (ATCC: 10231), fungi, 15 mg/mL, mean ± SD
[10] = test system: HFB4 human dermal fibroblast cell line; experiment: MTT cytotoxicity assay; assay type: cell-based; settings: 48 h
[11] = test system: S. aureus (ATCC: 6538); experiment: Agar well diffusion, inhibition zone; assay type: cell-based, Staphylococcus aureus; settings: for zone of inhibition at 15000 µg/mL: Staphylococcus aureus, read-out: diameter of the inhibition zone
[12] = test system: S. aureus (ATCC: 6538); experiment: MIC, twofold serial dilution; assay type: cell-based; settings: Staphylococcus aureus, 24 h
[13] = test system: C. albicans (ATCC: 10231); experiment: MIC, twofold serial dilution; assay type: cell-based, Candida albicans; settings: Candida albicans, 24 h
[14] = target: T1, human DHFR (Homo sapiens, UniProt P00374); experiment: DHFR inhibitor screening kit; assay type: biochemical; settings: for inhibition at 0.01 µg/mL / inhibition at 0.1 µg/mL / inhibition at 1 µg/mL / inhibition at 10 µg/mL: read-out: Inhibition of DHFR enzyme
T1 sequence (P00374 1-187): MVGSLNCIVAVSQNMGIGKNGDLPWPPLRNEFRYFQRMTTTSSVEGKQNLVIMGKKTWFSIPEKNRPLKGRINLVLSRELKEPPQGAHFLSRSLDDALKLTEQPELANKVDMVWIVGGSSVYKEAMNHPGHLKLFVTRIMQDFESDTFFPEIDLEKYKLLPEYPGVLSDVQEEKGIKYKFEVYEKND

| MIC [2] [µg/mL] | MIC [3] [µg/mL] | MIC [6] [µg/mL] | MIC [8] [µg/mL] | MIC [12] [µg/mL] | MIC [13] [µg/mL] | IC50 [14] [nM] | inhibition at 0.01 µg/mL [14] [%] | inhibition at 0.1 µg/mL [14] [%] | inhibition at 1 µg/mL [14] [%] | inhibition at 10 µg/mL [14] [%] | Compound | zone of inhibition at 15000 µg/mL [1] [mm] | zone of inhibition at 15000 µg/mL [4] [mm] | zone of inhibition at 15000 µg/mL [5] [mm] | zone of inhibition at 15000 µg/mL [7] [mm] | diameter of the inhibition zone [9] | IC50 [10] [µg/mL] | zone of inhibition at 15000 µg/mL [11] [mm] | zone of inhibition at 15000 µg/mL [9] [mm] | diameter of the inhibition zone [5] | other results |
| --- | --- | --- | --- | --- | --- | --- | --- | --- | --- | --- | --- | --- | --- | --- | --- | --- | --- | --- | --- | --- | --- |
| 125 (≈ 262 µM) | 62.5 (≈ 131 µM) | 31.2 (≈ 65.4 µM) |  |  |  |  |  |  |  |  | CNC(C)C1CCC(N)C(OC2C(N)CC(N)C(OC3OCC(C)(O)C(NC)C3O)C2O)O1 (stereo not shown) [Gentamicin, reference compound] | 32 ± 0.1 | 25 ± 0.1 | 35 ± 0.1 |  |  |  |  |  |  |  |
| 250 (≈ 999 µM) | 250 (≈ 999 µM) | 250 (≈ 999 µM) | 125 (≈ 499 µM) | 500 (≈ 2000 µM) |  |  |  |  |  |  | Nc1ccc(S(=O)(=O)Nc2ncccn2)cc1 [SD, sulfadiazine, reference compound] | 20.4 ± 0.9 | 19.8 ± 0.4 | 24 ± 1.4 | 16.3 ± 1.1 | no activity | 243 ± 46.1 (≈ 969 µM) | 31.2 ± 2.1 |  |  |  |
|  | 1000 (≈ 2130 µM) | 62.5 (≈ 133 µM) | 1000 (≈ 2130 µM) |  | 62.5 (≈ 133 µM) | 554 | 30 | 41.8 | 57.3 | 75.9 | CSc1c(C#N)c(N)n(NS(=O)(=O)c2ccccc2)c(=O)c1-c1nc2ccccc2s1 [compound 5a, N-(6-Amino-3-(benzo[d]thiazol-2-yl)-5-cyano-4-(methylthio)-2-oxopyridin-1(2H)-yl)benzenesulfonamide] | 20.6 ± 1 | 26 ± 0.5 |  | 17.6 ± 1.5 | 21.0 ± 1.0 mm | 167 ± 21.8 (≈ 356 µM) |  | 21 to 28 | − | diameter of the inhibition zone ([11]; S. aureus (ATCC: 6538), Gram (+ve), agar well diffusion, 15 mg/mL, mean ± SD): − |
| 1000 (≈ 2070 µM) | 1000 (≈ 2070 µM) | 125 (≈ 258 µM) | 1000 (≈ 2070 µM) | 250 (≈ 517 µM) |  | 620 | 19.8 | 37.4 | 65 | 79.4 | CSc1c(C#N)c(N)n(NS(=O)(=O)c2ccc(C)cc2)c(=O)c1-c1nc2ccccc2s1 [compound 5b, N-(6-Amino-3-(benzo[d]thiazol-2-yl)-5-cyano-4-(methylthio)-2-oxopyridin-1(2H)-yl)-4-methylbenzenesulfonamide] | 25.6 ± 1.1 | 21.3 ± 3 | 23.3 ± 0.5 | 18.6 ± 1 | − | 146 ± 27 (≈ 301 µM) | 30.3 ± 0.5 |  |  |  |
|  | 125 (≈ 276 µM) | 31.2 (≈ 68.9 µM) | 1000 (≈ 2210 µM) | 31.2 (≈ 68.9 µM) | 125 (≈ 276 µM) | 441 | 29.6 | 44.1 | 67 | 71.8 | Nc1n[nH]c2c(-c3nc4ccccc4s3)c(=O)n(NS(=O)(=O)c3ccccc3)c(N)c12 [compound 11a, N-(3,4-Diamino-7-(benzo[d]thiazol-2-yl)-6-oxo-1H-pyrazolo[4,3-c]pyridin-5(6H)-yl)benzenesulfonamide] | 15.2 ± 0.5 | 26 ± 0.5 |  | 22.3 ± 0.5 | 21.0 ± 1.7 mm | 234 ± 20.7 (≈ 515 µM) | 35.2 ± 1.5 | 21 to 28 | − |  |
